The target in this experiment is Polθ theta (1-899) (hPolQ) (Homo sapiens (Human), UniProt O75417). The experiment is described as follows: Biological Assay 1: Polθ ATPase activity, NADH oxidation-coupled enzymatic assay (10 nM enzyme, 30 min). The experiment is classed as biochemical. As to conditions: Polθ (1-899) 10 nM, 100 μM ATP, 300 nM dT50 ssDNA; Examples 1 to 268; read-out: ATPase NADH coupling:Standard Screening:hPolQ IC50. In a few lines: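 ATP turnover was coupled to NADH oxidation and followed at 340 nm every minute for 30 min. Enzyme (residues 1-899, 10 nM) sat with compound for 15 min at room temperature before an equal-volume addition of 100 μM ATP plus 300 nM dT50 ssDNA. Progress-curve slopes from 10-point dilutions were fitted by a four-parameter model.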

Molecules are shown by their SMILES.

Usually IC50 stands for the point on the concentration scale where inhibition reaches its midpoint.

Polθ theta (1-899) (hPolQ), sequence (O75417 1-899): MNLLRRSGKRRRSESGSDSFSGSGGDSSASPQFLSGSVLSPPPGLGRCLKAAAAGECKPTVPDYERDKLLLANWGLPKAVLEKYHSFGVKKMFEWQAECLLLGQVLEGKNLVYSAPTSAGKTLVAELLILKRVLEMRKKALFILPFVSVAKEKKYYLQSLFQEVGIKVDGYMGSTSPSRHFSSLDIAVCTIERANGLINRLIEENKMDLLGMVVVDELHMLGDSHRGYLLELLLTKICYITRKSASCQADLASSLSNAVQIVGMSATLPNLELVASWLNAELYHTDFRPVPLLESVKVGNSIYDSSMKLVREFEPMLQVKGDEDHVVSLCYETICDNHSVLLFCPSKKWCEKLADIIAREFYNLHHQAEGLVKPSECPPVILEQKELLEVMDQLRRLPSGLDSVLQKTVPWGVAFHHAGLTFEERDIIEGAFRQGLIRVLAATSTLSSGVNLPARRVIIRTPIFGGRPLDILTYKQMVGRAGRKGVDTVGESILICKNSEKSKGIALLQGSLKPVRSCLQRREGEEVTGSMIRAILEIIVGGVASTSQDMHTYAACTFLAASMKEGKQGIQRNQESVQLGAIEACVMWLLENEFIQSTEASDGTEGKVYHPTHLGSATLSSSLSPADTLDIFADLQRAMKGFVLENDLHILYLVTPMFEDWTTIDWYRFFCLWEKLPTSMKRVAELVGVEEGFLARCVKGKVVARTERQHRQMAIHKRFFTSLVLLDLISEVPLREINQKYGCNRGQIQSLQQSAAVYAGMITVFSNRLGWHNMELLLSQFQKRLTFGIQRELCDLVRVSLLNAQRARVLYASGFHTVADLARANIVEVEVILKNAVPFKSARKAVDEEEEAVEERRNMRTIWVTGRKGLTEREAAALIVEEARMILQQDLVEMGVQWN

Consider `COc1ccc(COc2nnc(NC(=O)c3cnc(C)cc3-c3cc(Cl)ncc3OC)s2)nc1` [Example 45, 2′-chloro-5′-methoxy-N-(5-((5-methoxypyridin-2-yl)methoxy)-1,3,4-thiadiazol-2-yl)-6-methyl-(4,4′-bipyridine)-3-carboxamide], for which the IC50 is at most 200 nM.

In the case of `COc1ccc(COc2nnc(NC(=O)c3cnc(C)cc3-c3c(F)cccc3OC)s2)nc1OC` [Example 43, N-(5-((5,6-dimethoxypyridin-2-yl)methoxy)-1,3,4-thiadiazol-2-yl)-4-(2-fluoro-6-methoxyphenyl)-6-methylnicotinamide], the IC50 is at most 200 nM.

Take `COc1cnc(Cl)cc1-c1cc(C)ncc1C(=O)Nc1nnc(OC[C@H]2CC[C@@H](F)CC2)s1` [Example 196, 2′-chloro-N-(5-(((1s,4s)-4-fluorocyclohexyl)methoxy)-1,3,4-thiadiazol-2-yl)-5′-methoxy-6-methyl-(4,4′-bipyridine)-3-carboxamide]: the IC50 was at most 200 nM.

For the molecule `COc1cnc(C)cc1-c1cc(C)ncc1C(=O)Nc1nnc(OCC23CC(O)(C2)C3)s1` [Example 98, N-(5-((3-hydroxybicyclo(1.1.1)pentan-1-yl)methoxy)-1,3,4-thiadiazol-2-yl)-5′-methoxy-2′,6-dimethyl-(4,4′-bipyridine)-3-carboxamide], the IC50 was at most 200 nM.

For `COc1cnc(Cl)cc1-c1cc(C)ncc1C(=O)Nc1nnc(OC[C@H]2CC[C@H](OC(F)F)CC2)s1` [Example 159, 2′-chloro-N-(5-(((1r,4r)-4-(difluoromethoxy)cyclohexyl)methoxy)-1,3,4-thiadiazol-2-yl)-5′-methoxy-6-methyl-(4,4′-bipyridine)-3-carboxamide], the IC50 was at most 200 nM.

As to `COc1cccc(F)c1-c1cc(C)ncc1C(=O)Nc1nnc(OC[C@H]2CC[C@H](O)CC2)s1` [Example 104, 4-(2-fluoro-6-methoxyphenyl)-N-(5-(((1r,4r)-4-hydroxycyclohexyl)methoxy)-1,3,4-thiadiazol-2-yl)-6-methylnicotinamide], the IC50 was at most 200 nM.

`Cc1cc(-c2ccccc2OC(F)F)c(C(=O)Nc2nnc(OCc3ccc(C(C)(C)O)cn3)s2)cn1` [Example 59, 4-(2-(difluoromethoxy)phenyl)-N-(5-((5-(2-hydroxypropan-2-yl)pyridin-2-yl)methoxy)-1,3,4-thiadiazol-2-yl)-6-methylnicotinamide]: the IC50 was at most 200 nM.

As to `COc1cnc(Cl)cc1-c1cc(C)ncc1C(=O)Nc1nnc(OC[C@H]2COC[C@@H]2C)s1` (single isomer, unassigned) [Example 268], the IC50 is at most 200 nM.

`COc1cnc(Cl)cc1-c1cc(C)ncc1C(=O)Nc1nnc(OC[C@@H]2C[C@@H]2F)s1` [Example 202, 2′-chloro-N-(5-(((1S,2S)-2-fluorocyclopropyl)methoxy)-1,3,4-thiadiazol-2-yl)-5′-methoxy-6-methyl-(4,4′-bipyridine)-3-carboxamide]: the IC50 was at most 200 nM.

For the molecule `COc1cccc(F)c1-c1cc(C)ncc1C(=O)Nc1nnc(OCC2CC3(CC(O)C3)C2)s1` (centres unmarked) [Example 141, 4-(2-fluoro-6-methoxyphenyl)-N-(5-((6-hydroxyspiro(3.3)heptan-2-yl)methoxy)-1,3,4-thiadiazol-2-yl)-6-methylpyridine-3-carboxamide], the IC50 is at most 200 nM.

For `Cc1cc(-c2c(F)cccc2OC(F)F)c(C(=O)Nc2nnc(OCc3ccc4c(n3)OCCO4)s2)cn1` [Example 47, 4-(2-(difluoromethoxy)-6-fluorophenyl)-N-(5-((2,3-dihydro-(1,4)dioxino(2,3-b)pyridin-6-yl)methoxy)-1,3,4-thiadiazol-2-yl)-6-methylnicotinamide], the IC50 is at most 200 nM.

For `COc1cnc(Br)cc1-c1cc(C)ncc1C(=O)Nc1nnc(OC[C@H]2CCOC2)s1` (single isomer, unassigned) [Example 244], the IC50 is at most 200 nM.

In the case of `COc1cnc(Cl)cc1-c1cc(C)ncc1C(=O)Nc1nnc(OC[C@]2(C)CCOC2)s1` (single isomer, unassigned) [Example 160], the IC50 was at most 200 nM.

`COc1cnc(Cl)cc1-c1cc(C)ncc1C(=O)Nc1nnc(OCc2ccc3c(n2)CCOC3)s1` [Example 151, 2′-chloro-5′-methoxy-6-methyl-N-(5-(5H,7H,8H-pyrano(4,3-b)pyridin-2-ylmethoxy)-1,3,4-thiadiazol-2-yl)-(4,4′-bipyridine)-3-carboxamide]: the IC50 was at most 200 nM.

Turning to `COc1cnc(C)cc1-c1cc(C)ncc1C(=O)Nc1nnc(OC[C@H]2C[C@@H](O)C2)s1` [Example 118, N-(5-(((1s,3s)-3-hydroxycyclobutyl)methoxy)-1,3,4-thiadiazol-2-yl)-5′-methoxy-2′,6-dimethyl-[4,4′-bipyridine]-3-carboxamide], the IC50 was at most 200 nM.

Regarding `COc1ccccc1-c1cc(C)ncc1C(=O)Nc1nnc(OCc2ccc(CO)cn2)s1` [compound 5, N-(5-((5-(hydroxymethyl)pyridin-2-yl)methoxy)-1,3,4-thiadiazol-2-yl)-4-(2-methoxyphenyl)-6-methylnicotinamide], the IC50 was at most 200 nM.

For `COc1cnc(Cl)cc1-c1cc(C)ncc1C(=O)Nc1nnc(OCC2COC(C)C2)s1` (centres unmarked) [Example 262, 2′-chloro-5′-methoxy-6-methyl-N-(5-((5-methyltetrahydrofuran-3-yl)methoxy)-1,3,4-thiadiazol-2-yl)-(4,4′-bipyridine)-3-carboxamide], the IC50 is at most 200 nM.

Take `COc1cnc(Cl)cc1-c1cc(C)ncc1C(=O)Nc1nnc(OCC2CC3CC2CN3C(=O)C(C)C)s1` (centres unmarked) [Example 156, 2′-chloro-N-(5-((2-isobutyryl-2-azabicyclo[2.2.1]heptan-5-yl)methoxy)-1,3,4-thiadiazol-2-yl)-5′-methoxy-6-methyl-[4,4′-bipyridine]-3-carboxamide]: the IC50 was at most 200 nM.

As for `COc1cccc(F)c1-c1cc(C)ncc1C(=O)Nc1nnc(OCC23CCC(O)(CC2)CC3)s1` [Example 66, 4-(2-fluoro-6-methoxyphenyl)-N-(5-((4-hydroxybicyclo(2.2.2)octan-1-yl)methoxy)-1,3,4-thiadiazol-2-yl)-6-methylnicotinamide], the IC50 was at most 200 nM.

Turning to `COc1cnc(Cl)cc1-c1cc(C)ncc1C(=O)Nc1nnc(OCC2COC2)s1` [Example 164, 2′-chloro-5′-methoxy-6-methyl-N-(5-(oxetan-3-ylmethoxy)-1,3,4-thiadiazol-2-yl)-(4,4′-bipyridine)-3-carboxamide], the IC50 is at most 200 nM.

For the molecule `COc1cccc(F)c1-c1cc(C)ncc1C(=O)Nc1nnc(OCc2ccc(C(C)(C)O)nc2)s1` [Example 109, 4-(2-fluoro-6-methoxyphenyl)-N-(5-((6-(2-hydroxypropan-2-yl)pyridin-3-yl)methoxy)-1,3,4-thiadiazol-2-yl)-6-methylpyridine-3-carboxamide], the IC50 is at most 200 nM.

On to `COc1cnc(Cl)cc1-c1cc(C)ncc1C(=O)Nc1nnc(OC[C@H]2CCO[C@@H]2C)s1` (single isomer, unassigned) [Example 182], for which the IC50 is at most 200 nM.

On to `COc1ccccc1-c1cc(C)ncc1C(=O)Nc1nnc(OCc2nccc3[nH]ncc23)s1` [Example 10, N-(5-((1H-pyrazolo(4,3-c)pyridin-4-yl)methoxy)-1,3,4-thiadiazol-2-yl)-4-(2-methoxyphenyl)-6-methylnicotinamide], for which the IC50 lay in the range of 500 to 1000 nM.

(Values after patent US20250325552A1, “SUBSTITUTED THIADIAZOLYL DERIVATIVES AS DNA POLYMERASE THETA INHIBITORS” (IDEAYA Biosciences, Inc., priority 2020, published 2025).)
